Test: Heavy metal (ferrous ion-Ferrozine) chelation assay
Format: biochemical
Conditions: Fe2+ chelation; calculated based on unpreserved extract dry weight
Method: The IC50 refers to the amount of extract required to chelate 50% of the available iron (II) in the assay. The lower the number, the higher the chelation power of an extract.
The ability of Inula extract to act as an anti-pollutant or antagonist of the adverse effects of pollutants and/or toxins in pollutants was further investigated in heavy metal chelation assays. Further to this objective, Inula extracts was tested in in vitro assay to assess its chelator power. In this assay, the ferrous ion is used as a model for heavy metals. The concentration of the ferrous iron-Ferrozine complex was measured by spectrophotometry (absorbance at 562 nm) to determine the Fe 2+-chelating ability of the extract or fraction. The reaction mixture, containing 2 Mm FeCl2 and 5 mM ferrozine was adjusted to 2 ml with bi-distilled water. The mixture was shaken and incubated for 10 min at room temperature. The absorbance of the mixture was measured at 562 nm against a blank EDTA was used as positive control. The choice of an internal reference may be adjusted in accordance with the heavy metal assay performed and such references are known in the art. Chelating power is expressed as an IC50 value (mg/ml) and reflects the concentration at which 50% of the available iron was chelated by, for example, supplemental extract added to the assay mix.

## O=C(O)CN(CCN(CC(=O)O)CC(=O)O)CC(=O)O [EDTA (reference), EDTA]
  IC50* (mg/ml DRY WEIGHT): 0.038 mg/ml DRY WEIGHT

— US20210060108A1, “INULA HELENIUM EXTRACTS FOR TREATING AND PREVENTING POLLUTION RELATED DAMAGE” (priority 2017, published 2021)
